Measurements taken from patent US20070148710A1, “Cpt resistant cell line” (priority 2003, published 2007).
Converted amounts (≈) assume the structure as drawn. Blank lines part the entries; values can stand above or below the compound they belong to.

Experiments:
Format in all cases: cell-based, human
SW948 = assay: cell proliferation assay, cross-resistance to topoisomerase I and II inhibitors; conditions: SW948 parental, mean ± SD, 2-4 independent assays; for IC50: Homo sapiens, read-out: Sensitivity expressed as IC50
Excerpt: (§1) Drug resistance to other topoisomerase I and II inhibitors was examined by determining the IC50 dose of each drug using a cell proliferation assay as shown in Table 3.

SW948CPTH = assay: as above; conditions: for IC50: Homo sapiens, read-out: Sensitivity expressed as IC50; for change in resistance of SW948CPTH cells compared to the parental cell line SW948: IC50 by cell proliferation assay (Table 3)
Excerpt: as §1

SW948CPTL cells = assay: intracellular accumulation of CPT-11 (HPLC), effect of verapamil; conditions: SW948CPTL
Excerpt: (§2) 10. […] Cells were washed, trypsinized, and counted. Cell pellets were lysed with water and sonicated. […] Results were generated from three independent experiments. […] Data are expressed as mean±SD. […] Data are the mean±SD of two experiments done in triplicate.
(§3) Additionally, multidrug resistance can be evaluated by measuring the expression level of p-glycoprotein (p-gp) (Juliano et al Biochim Biophys Acta 11:152-162, 1976) and breast cancer resistant protein (BCRP) (Doyle et al Proc Natl Acad Sci U S A 95:15665-15670, 1998) in SW948 and the resistant SW948 cell lines (SW948CPTH and SW948CPTL). It is understood that the disclosed methods can also be used with other cell lines including other colon cancer cell lines. For example, the disclosed methods can be used with LS174T, WiDr, HT-29, SW403, DLD-1, SW480, SNU-C1, Caco-2, and COLO 205 cell lines.

SW948CPTH cells [1] = assay: as above; conditions: SW948CPTH; 10 μM verapamil with CPT-11 160 μM, 2 hours
Excerpt: as §2, §3

SW948CPTH cells [2] = assay: change of CPT-11 IC50 (clonogenic assay) by verapamil, amiloride or EIPA
Method: as §2
12. […] Cells were plated on glass coverslips and cultured overnight. Intracellular pH was measured with a fluorescence spectrophotometer after cells were loaded with the pH-sensitive fluorescence dye, BCECF. The data represent the mean±SD of 60 individual cells. […] After 24 h the drugs were removed, cells washed with PBS and drug-free culture medium added to the cell cultures. Data represent the mean±SD from three assays done in triplicate with SW948CPTH cells and two assays done in triplicate for SW948CPTL cells.

SW948 cell line = assay: SN38 IC50 determination
SW948CPTL cell line = assay: SN38 IC50 determination
SW948CPTH cell line = assay: SN38 IC50 determination
SW948CPTL = assay: cell proliferation assay, cross-resistance to topoisomerase I and II inhibitors
Excerpt: as §1

SW948CPTH cells [3] = assay: intracellular pH (BCECF fluorescence)
Method: 12. […] Cells were plated on glass coverslips and cultured overnight.

IC50 (SW948CPTH): 0.8 ± 0.2 µg/mL (≈ 3.3 µM)
SMILES: CC1(C)CCC2=C(O1)c1ccccc1C(=O)C2=O [Lapachone]
IC50 (SW948): 1.1 ± 0.2 µg/mL (≈ 4.54 µM)
change in resistance of SW948CPTH cells compared to the parental cell line SW948 (SW948CPTH): No change

SMILES: COc1ccc(CCN(C)CCCC(C#N)(c2ccc(OC)c(OC)c2)C(C)C)cc1OC (stereo not drawn) [Verapamil]
intracellular concentration of CPT-11 with verapamil relative to SW948 parent cells (SW948CPTL cells; 10 μM verapamil): 2.4 times
effect on intracellular concentration of CPT-11 (SW948CPTL cells; 10 μM verapamil with CPT-11 160 μM, 2 hours): increased
effect on intracellular concentration of CPT-11 (SW948CPTH cells [1]): increased the intracellular concentration of CPT-11 to a level similar to the SW948 parent cells

SMILES: CC[C@@]1(O)C(=O)OCc2c1cc1n(c2=O)Cc2cc3cc(O)ccc3nc2-1 [10-OH-CPT]
Sensitivity expressed as IC50 (SW948): 0.4 ± 0.3 µg/mL
change in resistance of SW948CPTH cells compared to the parental cell line SW948 (SW948CPTH): increased resistance
Sensitivity expressed as IC50 (SW948CPTH; SW948CPTH treated with 20 μg/ml CPT-11 for 62 days, then >22 days without CPT-11, mean ± SD): 2.1 ± 1.0 µg/mL

SMILES: CCN(c1nc(N)c(C(=O)N=C(N)N)nc1Cl)C(C)C [EIPA, 5-(N-ethyl-N-isopropyl)amiloride]
effect on resistance of cells to CPT-11 (SW948CPTH cells [2]; EIPA 3 or 10 μM with CPT-11 24 h, FIG. 8B covers SW948CPTH and SW948CPTL): decreased the resistance

SMILES: CCc1c2c(nc3ccc(O)cc13)-c1cc3c(c(=O)n1C2)COC(=O)[C@]3(O)CC [SN38]
SN38 IC50 (SW948 cell line): 0.2 ± 0.01 µg/mL
SN38 IC50 (SW948CPTL cell line): 1.8 ± 0.2 µg/mL
SN38 IC50 (SW948CPTH cell line): 1.5 ± 0.1 µg/mL

IC50 (SW948CPTL; Homo sapiens, read-out: Sensitivity expressed as IC50): 1.8 ± 0.3 µg/mL (≈ 3.06 µM)
IC50 (SW948CPTH): 0.9 ± 0.1 µg/mL (≈ 1.53 µM)
SMILES: COc1cc([C@@H]2c3cc4c(cc3[C@@H](O[C@@H]3O[C@@H]5CO[C@@H](C)O[C@H]5[C@H](O)[C@H]3O)[C@H]3COC(=O)[C@H]23)OCO4)cc(OC)c1O [Etoposide]
IC50 (SW948): 0.9 ± 0.1 µg/mL (≈ 1.53 µM)
increase in resistance by SW948CPTL cells compared to the parental cell line SW948 (SW948CPTL; IC50 by cell proliferation assay (Table 3)): 2 fold
change in resistance of SW948CPTH cells compared to the parental cell line SW948 (SW948CPTH): no change in resistance

SMILES: N=C(N)NC(=O)c1nc(Cl)c(N)nc1N [Amiloride]
effect on intracellular pH (SW948CPTH cells [3]): lowered
intracellular pH in the presence of amiloride (SW948CPTH cells [3]; from about 6.98 without amiloride (FIG. 8A)): about 6.85
effect on resistance of the cells to CPT-11 (SW948CPTH cells [2]; SW948CPTH, amiloride 300 μM with CPT-11 24 h (FIG. 8B)): decreased the resistance

SMILES: CC[C@@]1(O)C(=O)OCc2c1cc1n(c2=O)Cc2cc3ccccc3nc2-1 [CPT]
IC50 (SW948): 0.1 ± 0.1 µg/mL (≈ 0.287 µM)
IC50 (SW948CPTH): 0.6 ± 0.6 µg/mL (≈ 1.72 µM)
change in resistance of SW948CPTH cells compared to the parental cell line SW948 (SW948CPTH): increased resistance
